Experimental data published in US6596718B1, “7-Morpholin-4yl-benzothiazole amide derivatives” (Hoffmann-La Roche Inc., priority 2001, dated 2003).

Tests used:
[1] = biological target: T1, human adenosine A1 receptor (Homo sapiens, UniProt P30542); assay: [3H]-DPCPX binding assay, human adenosine A1 receptor (SPA, CHO cell membranes); conditions: recombinant human A1 in CHO membranes; [3H]-DPCPX 0.6 nM; Ki by Cheng-Prussoff; read-out: hA1 (pKi) (converted)
T1 construct: expressed in transfected cells; host or cells: CHO cells, Semliki Forest virus expression system; membrane preparation
T1 sequence (P30542 1-326): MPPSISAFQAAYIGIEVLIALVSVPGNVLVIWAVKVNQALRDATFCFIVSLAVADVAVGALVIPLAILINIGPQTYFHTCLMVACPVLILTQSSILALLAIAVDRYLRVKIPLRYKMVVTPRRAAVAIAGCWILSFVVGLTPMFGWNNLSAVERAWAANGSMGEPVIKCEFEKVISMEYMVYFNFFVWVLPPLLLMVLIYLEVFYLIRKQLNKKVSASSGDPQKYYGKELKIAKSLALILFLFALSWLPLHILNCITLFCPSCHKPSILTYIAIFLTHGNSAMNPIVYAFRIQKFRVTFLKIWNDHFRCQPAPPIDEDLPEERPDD
Description: Human Adenosine A1 Receptor
(§1) The human adenosine A1 receptor was recombinantly expressed in chinese hamster ovary (CHO) cells using the semlilki forest virus expression system. Cells were harvested, washed twice by centrifugation, homogenized and again washed by centrifugation. The final washed membrane pellet was suspended in a Tris (50 mM) buffer containing 120 mM NaCl, 5 mM KCl, 2 mM CaCl2 and 10 mM MgCl2 (pH 7.4) (buffer A). The [^3H]-DPCPX (([propyl-^3H]8-cyclopentyl-1,3-dipropyxanthine); 0.6 nM) binding assay was carried out in 96-well plates in the presence of 2.5 μg of membrane protein, 0.5 mg of Ysi-poly-l-lysine SPA beads and 0.1 U adenosine deaminase in a final volume of 200 μl of buffer A. Non-specific binding was defined using xanthine amine congener (XAC; 2 μM). Compounds were tested at 10 concentrations from 10 μM-0.3 nM. All assays were conducted in duplicate and repeated at least two times. Assay plates were incubated for 1 hour at room temperature before centrifugation and then bound ligand determined using a Packard Topcount scintillation counter. IC50, the concentration where 50% of the […] binding is displaced, values were calculated using a non-linear curve fitting program and ki values calculated using the Cheng-Prussoff equation.

[2] = biological target: T2, human adenosine A2A receptor (Homo sapiens, UniProt P29274); assay: [3H]-SCH-58261 binding assay, human adenosine A2A receptor (SPA, CHO cell membranes); conditions: recombinant human A2A in CHO membranes; [3H]-SCH-58261 1 nM; Ki by Cheng-Prussoff; read-out: hA2 (pKi) (converted)
T2 construct: expressed in transfected cells; host or cells: CHO cells, Semliki Forest virus expression system; membrane preparation
Description: Human Adenosine A2A Receptor
as §1, with “adenosine A2A” for “adenosine A1”, “(buffer A)” for “(buffer A).”, “The [^3H]-SCH-58261 (Dionisotti et al., 1997, Br J Pharmacol 121, 353; 1” for “The [^3H]-DPCPX (([propyl-^3H]8-cyclopentyl-1,3-dipropyxanthine); 0.6”, “counter. IC50 values,” for “counter. IC50,”, “displaced,” for “displaced, values”, “and Ki” for “and ki”

T2 sequence (P29274 whole entry): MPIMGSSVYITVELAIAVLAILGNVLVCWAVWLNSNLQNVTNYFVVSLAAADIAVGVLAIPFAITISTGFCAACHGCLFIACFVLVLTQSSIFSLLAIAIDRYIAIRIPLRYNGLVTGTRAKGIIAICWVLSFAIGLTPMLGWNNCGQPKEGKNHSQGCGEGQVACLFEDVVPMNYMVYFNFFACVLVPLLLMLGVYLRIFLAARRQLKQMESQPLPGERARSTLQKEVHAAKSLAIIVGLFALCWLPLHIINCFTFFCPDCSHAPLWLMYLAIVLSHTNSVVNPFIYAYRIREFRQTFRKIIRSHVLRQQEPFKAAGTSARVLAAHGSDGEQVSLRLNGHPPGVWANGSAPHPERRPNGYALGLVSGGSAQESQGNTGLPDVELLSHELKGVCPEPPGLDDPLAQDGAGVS

Row | Structure (SMILES) | melting point | Ki [1] | Ki [2]
1 | COc1ccc(N2CCOCC2)c2sc(C(=O)NCCc3ccccc3Cl)nc12 [Example 63, 4-Methoxy-7-morpholin-4-yl-benzothiazole-2-carboxylic acid [2-(2-chloro-phenyl)-ethyl]-amide] | 141 to 143 °C | 1 µM | 0.02 µM
2 | COc1ccc(N2CCOCC2)c2sc(C(=O)NC(C)Cc3cccs3)nc12 (stereo not drawn) [Example 81, 4-Methoxy-7-morpholin-4-yl-benzothiazole-2-carboxylic acid (1-methyl-2-thiophen-2-yl-ethyl)-amide] | 127 to 129 °C | 0.2 µM | 0.00126 µM
3 | COc1ccc(N2CCOCC2)c2sc(C(=O)NCCc3cccs3)nc12 [Example 22, 4-Methoxy-7-morpholin-4-yl-benzothiazole-2-carboxylic acid (2-thiophen-2-yl-ethyl)-amide] | 120 to 121 °C | 1.26 µM | 0.00398 µM
4 | COc1ccc(N2CCOCC2)c2sc(C(=O)NCCc3ccsc3)nc12 [Example 54, 4-Methoxy-7-morpholin-4-yl-benzothiazole-2-carboxylic acid (2-thiophen-3-yl-ethyl)-amide] | 137 to 139 °C | 1.26 µM | 0.00631 µM
5 | COc1ccc(N2CCOCC2)c2sc(C(=O)NCCc3cccc(C)c3)nc12 [Example 71, 4-Methoxy-7-morpholin-4-yl-benzothiazole-2-carboxylic acid (2-m-tolyl-ethyl)-amide] | 119 to 121 °C | 1.26 µM | 0.0251 µM
6 | COc1ccc(N2CCOCC2)c2sc(C(=O)NCCc3ccccc3)nc12 [Example 6, 4-Methoxy-7-morpholin-4-yl benzothiazole-2-carboxylic acid phenethyl-amide] | 50 to 51 °C | 1.26 µM | 0.02 µM
7 | COc1ccc(N2CCOCC2)c2sc(C(=O)NCCc3cccnc3)nc12 [Example 55, 4-Methoxy-7-morpholin-4-yl-benzothiazole-2-carboxylic acid (2-pyridin-3-yl-ethyl)-amide] | 160 to 163 °C | 6.31 µM | 0.0251 µM
8 | COc1cccc(CCNC(=O)c2nc3c(OC)ccc(N4CCOCC4)c3s2)c1 [Example 64, 4-Methoxy-7-morpholin-4-yl-benzothiazole-2-carboxylic acid [2-(3-methoxy-phenyl)-ethyl] amide] | 99 to 101 °C | 1.26 µM | 0.0251 µM
9 | COc1ccc(N2CCOCC2)c2sc(C(=O)NC(C)c3nc(C)cs3)nc12 (stereo not drawn) [Example 77, 4-Methoxy-7-morpholin-4-yl-benzothiazole-2-carboxylic acid [1-(4-methyl-thiazol-2-yl)-ethyl]-amide] | 175 to 176 °C | 0.501 µM | 0.00501 µM
10 | COc1ccc(N2CCOCC2)c2sc(C(=O)Nc3cccnc3)nc12 [Example 9, 4-Methoxy-7-morpholin-4-yl-benzothiazole-2-carboxylic acid pyridin-3-ylamide] | 220 to 221 °C | 3.98 µM | 0.0158 µM
11 | COc1ccc(N2CCOCC2)c2sc(C(=O)NCc3cccc(Cl)c3)nc12 [Example 15, 4-Methoxy-7-morpholin-4-yl-benzothiazole-2-carboxylic acid 3-chloro-benzylamide] | 148 to 150 °C | 2.51 µM | 0.02 µM
12 | COc1ccc(N2CCOCC2)c2sc(C(N)=O)nc12 [Example 1, 4-Methoxy-7-morpholin-4-yl-benzothiazole-2-carboxylic Acid Amide] | 228 to 230 °C | 3.98 µM | 0.0251 µM
13 | COc1ccc(N2CCOCC2)c2sc(C(=O)NCCc3cccc(F)c3)nc12 [Example 57, 4-Methoxy-7-morpholin-4-yl-benzothiazole-2-carboxylic acid [2-(3-fluoro-phenyl)-ethyl]-amide] | 120 to 122 °C | 1.58 µM | 0.02 µM
14 | COc1ccc(N2CCOCC2)c2sc(C(=O)NCCc3cccc(Cl)c3)nc12 [Example 65, 4-Methoxy-7-morpholin-4-yl-benzothiazole-2-carboxylic acid [2-(3-chloro-phenyl)-ethyl]-amide] | 109 to 111 °C | 0.501 µM | 0.0251 µM
15 | COc1ccccc1CNC(=O)c1nc2c(OC)ccc(N3CCOCC3)c2s1 [Example 25, 4-Methoxy-7-morpholin-4-yl-benzothiazole-2-carboxylic acid 2-methoxy-benzylamide] | 186 to 188 °C | 7.94 µM | 0.0251 µM
